PubChem BioAssay AID1996
Values after ≈ are worked out from the molar mass of the structure shown.

details: buffer; pH 7.4; 200.0 µM

Compound | solubility kinetic
O=C(CCNC(=O)c1ccco1)NCCc1c[nH]c2ccccc12 | 33.1 µg/mL (≈ 102 µM)
CC(=O)c1c(C)[nH]c(C(=O)O)c1C | > 27.2 µg/mL
CCCC(=O)Nc1ccc(C(=O)COC(=O)C2CC2)cc1 | 15.3 µg/mL (≈ 52.9 µM)
COc1ccc(O)c(CN2CCCC(C(=O)c3ccccc3SC)C2)c1 (centres undefined) | 17.7 µg/mL (≈ 47.6 µM)
O=C(Nc1ccc(S(=O)(=O)Nc2ncccn2)cc1)c1ccccc1 | > 53.2 µg/mL
CC(C)CC(=O)Nc1ncc([N+](=O)[O-])s1 | > 34.4 µg/mL
CC(=O)O.CC1=CC(C)C(/C=N/N=C(N)N)C(C)C1 (centres undefined) | > 40.3 µg/mL
COc1ccc(CCC(=O)NCCc2ccc(Cl)cc2)cc1 | 3.7 µg/mL (≈ 11.6 µM)
COc1cccc(C(=O)NCC2(c3ccccc3)CCCC2)c1 | 28.4 µg/mL (≈ 91.8 µM)
CCC(=O)NNc1nc2c(F)cccc2s1 | > 35.9 µg/mL
Cc1ccc2[nH]cc(CCNC(=O)/C=C/c3ccco3)c2c1 | 36.9 µg/mL (≈ 125 µM)
NC(=O)c1cnccn1 | > 18.5 µg/mL
CN(C)S(=O)(=O)N1CCN(CC(=O)Nc2ccc(F)cc2)CC1 | > 51.7 µg/mL
CCOC(=O)Cn1cc(C#N)c(=O)[nH]c1=O | > 33.5 µg/mL
Cc1nc(SCc2cccc(F)c2)c2oc3ccccc3c2n1 | < 0.3 µg/mL
COc1ccc(F)cc1COc1nc(C)nc2ccccc12 | 28.3 µg/mL (≈ 94.9 µM)
O=S(=O)(NCCCN1CCOCC1)c1ccc2ccccc2c1 | > 50.2 µg/mL
CCC1CCCCN1C(=O)/C=C/c1ccc2c(c1)OCO2 (centres undefined) | > 43.1 µg/mL
COc1ccc(OCC(=O)N2CCc3ccccc3C2)cc1 | 29.8 µg/mL (≈ 100 µM)
C/C(Cl)=C\C[N+](C)(C)CC(=O)OCCc1ccccc1.[Br-] | > 56.5 µg/mL
O=C(COC(=O)c1cncc(Br)c1)NC1CCCC1 | > 49.1 µg/mL
O=[N+]([O-])c1ccc(OCCn2cnc3ccccc32)cc1 | 7.6 µg/mL (≈ 26.8 µM)
CC(C)c1ccc(NC2CCCN(C(=O)c3ccco3)C2)cc1 (centres undefined) | > 46.9 µg/mL
CCOc1ccc2oc(C(=O)OCC(=O)NC(=O)NC)c(C)c2c1 | 1.9 µg/mL (≈ 5.68 µM)
O=c1ccnc(SCCc2ccc([N+](=O)[O-])cc2)[nH]1 | 21.6 µg/mL (≈ 77.9 µM)

Compound | solubility kinetic
CN(C)C=NC(=O)c1cc(C(=O)c2ccc(F)cc2)c[nH]1 | > 43.1 µg/mL
N=c1c2ccccc2nc2n1CCCCCCCCCCC2 | 34.6 µg/mL (≈ 116 µM)
O=C1CCCCCCCCCC/C(=N\O)CCCO1 | 9.8 µg/mL (≈ 36.4 µM)
O=C(O)CNC(=S)N(Cc1ccccc1Cl)C1CCCCC1 | 49.1 µg/mL (≈ 144 µM)
Cc1cccnc1NC(=O)CNC(=O)COc1ccccc1 | > 44.9 µg/mL
N#CCCN(Cc1cccnc1)C(=S)NCc1ccco1 | > 45.1 µg/mL
CCc1ccc(CN2C(=O)c3ccccc3C2C(=O)NC(C)CC)cc1 (centres undefined) | 5.3 µg/mL (≈ 15.1 µM)
CC(C)(C)c1ccc(C(=O)N2CCCC2)s1 | > 35.6 µg/mL
Cc1ccc(OC(C)C(=O)OCC(=O)Nc2sccc2C(N)=O)cc1 (centres undefined) | > 54.4 µg/mL
Cc1cccc(NC(=O)c2ccc(N3CCOCC3)c([N+](=O)[O-])c2)n1 | 38.1 µg/mL (≈ 111 µM)
CCc1ccc(NS(=O)(=O)c2ccc3[nH]c(=O)[nH]c3c2)cc1 | 5.5 µg/mL (≈ 17.3 µM)
c1ccc2sc(NC3=NCN(CC4CCCO4)CN3)nc2c1 (centres undefined) | 42.1 µg/mL (≈ 133 µM)
Cc1ccccc1OCCC(=O)OCC(=O)NC1CCCCC1 | > 47.9 µg/mL
CCCC(=O)Nc1ccc2c(c1)COC2=O | 18.5 µg/mL (≈ 84.4 µM)
NC(=O)Cc1nc(-c2ccc(F)cc2)cs1 | > 35.4 µg/mL
CC(C)(C)NC(=O)COC(=O)C1c2ccccc2Oc2ccccc21 | 48.9 µg/mL (≈ 144 µM)
Cc1ccc(C)c(N2CCN(c3ncccc3[N+](=O)[O-])CC2)c1 | 1.1 µg/mL (≈ 3.52 µM)
OC(C[n+]1ccccc1)c1ccccc1.[Br-] (centres undefined) | > 42 µg/mL
COc1ccc(CNC(=O)c2nccnc2CO)cc1 | > 41 µg/mL
C/C(=N\OCc1ccc(C#N)cc1)c1ccccc1 | < 0.3 µg/mL
O=C(/C=C/NCc1cccnc1)C(F)(F)C(F)(F)F | > 42 µg/mL
O=C(CNC(=O)c1ccco1)Nc1ccncc1 | 36.4 µg/mL (≈ 148 µM)
O=C(Nc1cccc2cccnc12)c1ccccc1Br | 0.4 µg/mL (≈ 1.22 µM)
O=C(Nc1c(-c2ccccc2)nc2ccccn12)c1ccccc1 | 38.7 µg/mL (≈ 124 µM)
